The results in this text go back to publication PMC11397024, “Strategic Fluorination to Achieve a Potent, Selective, Metabolically Stable, and Orally Bioavailable Inhibitor of CSNK2” (Molecules, 2024).

Holding throughout (assay type): cell-based
One experiment deals with T1, MAP3K10 (Homo sapiens, UniProt Q02779).
T1 construct: host or cells: HEK293
The experiment in a line: NanoBRET K192. The note with it: HEK293. As to the method:
(§1) The K192 selectivity assay was run according to the Draft Promega technical manual, NanoBRET^TM Target Engagement K192 Kinase Selectivity System. Reagents were supplied by Promega (Promega NP 4101). For the assay, DNA from the prepared kinase vector panel plates A and B were mixed with Fugene in 96-well plates (Corning 3917) and incubated at room temperature for 30 min. The NanoLuc® Low control vector pNL1.1.CMV [Nluc/CMV] Vector (Cat.# N1091) and the transfection control vector NanoLuc®-HIPK2 Fusion Vector (Cat.# NV3221) were used as controls.
(§2) HEK293 cells were grown to 75–95% confluency in DMEM (Gibco 11995-065) supplemented with FBS (Avantor 97068-085) at 37 °C in […]. On the first day of the assay, cells were harvested and resuspended in Opti-MEM (Gibco 11058-021) supplemented with 1% FBS (Avantor 97068-085) at 2.5 × 10^5 cells per mL. A volume of 60 μL of cell suspension was mixed with 10 μL of prepared DNA (10X concentration) and 30 μL of Fugene (30 μL/mL in Opti-MEM) as outlined by Promega and incubated overnight at 37 °C in a 5% CO2 incubator.
(§3) On day two of the assay, 5 μL of 20X K10 tracer was prepared and added at concentrations recommended by Promega. Then, 10 μL of test compounds at 100 μM in Opti-MEM (diluted from a 10 mM solution in DMSO) was added to the test wells while an equivalent volume of Opti-MEM was added to the high-control wells. Plates were kept at 37 °C in a 5% CO2 incubator for two hours. After two hours, plates were allowed to equilibrate to room temperature for 15 min. A solution of 3X Complete Substrate plus Inhibitor Solution was freshly prepared, consisting of a 1:166 dilution of NanoBRET™ Nano-Glo® Substrate plus a 1:500 dilution of Extracellular NanoLuc® Inhibitor in Opti-MEM® medium without serum or phenol red. A 50 μL volume of the 3X Complete Substrate plus Inhibitor Solution was added to each assay well, including control wells. After 2–3 min, the plate was shaken at 300 RPM for 10 s, and the donor emission wavelength (450 nm) and acceptor emission wavelength (610 nm) were measured using the Glomax® Discover System.
(§4) As a quality check, the donor signal-to-background ratio was calculated for each individual kinase by dividing the mean donor signal for each kinase by the mean donor signal for the signal-to-background control wells. Fractional occupancy of the test drug for each kinase was determined using the following formula:Occupancy (%) = [1 − (Sample − Bottom)/(Top − Bottom)] × 100 where
For orientation: In BRET a luciferase serves as donor, and the signal depends on an acceptor being close.

A further experiment has as its target T2, CLK2 (Homo sapiens, UniProt P49760).
T2 construct: expressed in transfected cells; host or cells: HEK293
Description: NanoBRET K192. As to the method:
as §1, §2, §3, §4

The target of another experiment is T3, SIK1 (Homo sapiens, UniProt P57059).
T3 construct: purchased Promega (NanoBRET Target Engagement K192 Kinase Selectivity System)
T3 sequence (P57059 whole entry): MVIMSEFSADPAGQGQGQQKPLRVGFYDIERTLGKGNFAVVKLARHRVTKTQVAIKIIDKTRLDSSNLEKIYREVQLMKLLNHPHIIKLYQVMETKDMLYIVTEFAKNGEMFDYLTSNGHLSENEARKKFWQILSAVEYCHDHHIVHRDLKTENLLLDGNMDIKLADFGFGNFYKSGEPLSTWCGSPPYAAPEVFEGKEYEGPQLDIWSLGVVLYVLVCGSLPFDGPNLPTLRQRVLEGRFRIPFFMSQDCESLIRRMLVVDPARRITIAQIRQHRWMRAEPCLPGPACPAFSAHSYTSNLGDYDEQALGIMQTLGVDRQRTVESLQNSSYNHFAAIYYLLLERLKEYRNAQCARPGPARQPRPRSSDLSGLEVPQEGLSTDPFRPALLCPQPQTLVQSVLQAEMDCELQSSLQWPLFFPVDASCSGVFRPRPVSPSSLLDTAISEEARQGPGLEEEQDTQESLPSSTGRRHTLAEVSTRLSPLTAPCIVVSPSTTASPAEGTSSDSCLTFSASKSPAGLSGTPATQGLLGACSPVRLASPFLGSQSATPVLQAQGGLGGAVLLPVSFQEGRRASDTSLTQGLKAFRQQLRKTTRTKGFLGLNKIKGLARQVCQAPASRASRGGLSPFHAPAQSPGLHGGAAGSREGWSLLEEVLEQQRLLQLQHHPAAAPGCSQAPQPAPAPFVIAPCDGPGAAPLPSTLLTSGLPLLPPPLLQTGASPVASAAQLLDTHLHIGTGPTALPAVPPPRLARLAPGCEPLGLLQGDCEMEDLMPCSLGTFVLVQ
The experiment in a line: NanoBRET K192. The note with it: HEK293. Here is the method:
as §1, §2, §3, §4

The target in the next experiment is T4, MERTK (Homo sapiens, UniProt Q12866).
T4 construct: purchased Promega (NanoBRET Target Engagement K192 Kinase Selectivity System)
T4 sequence (Q12866 21-999): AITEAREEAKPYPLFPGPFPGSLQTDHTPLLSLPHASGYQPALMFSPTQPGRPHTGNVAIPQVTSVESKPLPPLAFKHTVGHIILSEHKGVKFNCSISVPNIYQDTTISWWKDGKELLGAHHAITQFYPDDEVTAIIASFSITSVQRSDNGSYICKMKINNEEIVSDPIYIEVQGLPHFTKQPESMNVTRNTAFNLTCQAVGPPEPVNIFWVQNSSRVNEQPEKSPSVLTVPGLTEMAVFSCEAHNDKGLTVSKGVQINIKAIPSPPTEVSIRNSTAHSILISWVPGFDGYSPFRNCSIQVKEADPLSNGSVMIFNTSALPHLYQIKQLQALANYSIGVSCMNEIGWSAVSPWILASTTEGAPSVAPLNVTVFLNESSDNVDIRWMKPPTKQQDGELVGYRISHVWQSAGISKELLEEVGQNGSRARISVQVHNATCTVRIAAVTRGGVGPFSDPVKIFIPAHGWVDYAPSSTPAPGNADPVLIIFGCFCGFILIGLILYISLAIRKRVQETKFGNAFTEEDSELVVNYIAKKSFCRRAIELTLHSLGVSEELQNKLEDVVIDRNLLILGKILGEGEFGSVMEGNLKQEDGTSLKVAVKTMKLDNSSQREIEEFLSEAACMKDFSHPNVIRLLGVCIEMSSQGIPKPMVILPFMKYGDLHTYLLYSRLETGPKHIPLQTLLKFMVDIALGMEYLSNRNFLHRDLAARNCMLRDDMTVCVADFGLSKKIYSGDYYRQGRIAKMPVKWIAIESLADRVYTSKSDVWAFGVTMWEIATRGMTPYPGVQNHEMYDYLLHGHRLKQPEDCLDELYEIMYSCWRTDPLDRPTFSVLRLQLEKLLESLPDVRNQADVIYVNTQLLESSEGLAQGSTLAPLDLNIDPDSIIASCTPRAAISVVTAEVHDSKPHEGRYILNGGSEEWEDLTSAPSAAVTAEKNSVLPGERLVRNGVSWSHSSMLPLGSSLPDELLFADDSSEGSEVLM
The experiment in a line: NanoBRET K192. The note with it: HEK293. As to the method: as §1, §2, §3, §4

The next experiment concerns the target T5, PHKG2 (Homo sapiens, UniProt P15735).
T5 construct: purchased Promega (NanoBRET Target Engagement K192 Kinase Selectivity System)
Description: NanoBRET K192. The note with it: HEK293. Here is the method: as §1, §2, §3, §4

A further experiment has as its target T6, MAP3K12 (Homo sapiens, UniProt Q12852).
T6 construct: purchased Promega (NanoBRET Target Engagement K192 Kinase Selectivity System)
Description: NanoBRET K192. The conditions noted are these: HEK293. As to the method: as §1, §2, §3, §4

The target in a further experiment is T7, EPHA7 (Homo sapiens, UniProt Q15375).
T7 construct: host or cells: HEK293
T7 sequence (Q15375 28-998): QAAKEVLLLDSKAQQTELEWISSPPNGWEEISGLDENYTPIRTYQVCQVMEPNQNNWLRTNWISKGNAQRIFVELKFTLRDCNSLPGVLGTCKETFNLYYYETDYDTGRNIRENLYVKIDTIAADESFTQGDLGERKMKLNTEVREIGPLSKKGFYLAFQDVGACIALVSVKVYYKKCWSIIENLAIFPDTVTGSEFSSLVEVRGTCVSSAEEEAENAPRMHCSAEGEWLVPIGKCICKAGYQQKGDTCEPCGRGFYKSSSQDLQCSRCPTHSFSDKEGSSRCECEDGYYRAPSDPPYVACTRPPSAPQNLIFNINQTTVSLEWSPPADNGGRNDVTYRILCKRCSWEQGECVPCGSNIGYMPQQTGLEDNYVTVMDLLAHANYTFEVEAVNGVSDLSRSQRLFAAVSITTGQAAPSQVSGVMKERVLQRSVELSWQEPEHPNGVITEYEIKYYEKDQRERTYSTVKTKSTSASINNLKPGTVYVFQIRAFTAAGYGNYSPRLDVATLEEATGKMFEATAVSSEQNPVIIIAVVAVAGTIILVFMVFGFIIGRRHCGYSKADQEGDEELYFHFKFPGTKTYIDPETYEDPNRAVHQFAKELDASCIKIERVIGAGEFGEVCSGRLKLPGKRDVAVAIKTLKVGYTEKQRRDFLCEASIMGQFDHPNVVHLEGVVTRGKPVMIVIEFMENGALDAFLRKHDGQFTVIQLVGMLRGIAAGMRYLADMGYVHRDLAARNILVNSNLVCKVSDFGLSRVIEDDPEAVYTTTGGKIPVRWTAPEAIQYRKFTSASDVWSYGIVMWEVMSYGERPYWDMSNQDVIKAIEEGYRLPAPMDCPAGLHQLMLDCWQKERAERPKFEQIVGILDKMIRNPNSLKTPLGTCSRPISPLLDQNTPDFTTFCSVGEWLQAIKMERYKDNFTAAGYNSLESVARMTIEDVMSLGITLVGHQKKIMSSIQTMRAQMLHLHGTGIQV
The experiment in a line: NanoBRET K192. The note with it: HEK293. As to the method: as §1, §2, §3, §4

The target of a further experiment is T8, CDK4 + D3 (Homo sapiens, UniProt P11802).
T8 construct: purchased Promega (NanoBRET Target Engagement K192 Kinase Selectivity System)
The experiment in a line: NanoBRET K192. The note with it: HEK293. As to the method: as §1, §2, §3, §4

The next experiment addresses T9, CDK5 + CDK5R1 (Homo sapiens, UniProt Q00535).
T9 construct: purchased Promega (NanoBRET Target Engagement K192 Kinase Selectivity System)
Description: NanoBRET K192. The conditions noted are these: HEK293. Here is the method:
as §1, §2, §3, §4

In a further experiment the target is T10, ICK (Homo sapiens, UniProt Q9UPZ9).
T10 construct: host or cells: HEK293
The experiment in a line: NanoBRET K192. The conditions noted are these: HEK293. Here is the method: as §1, §2, §3, §4

The next experiment addresses T11, NEK4 (Homo sapiens, UniProt P51957).
T11 construct: purchased Promega (NanoBRET Target Engagement K192 Kinase Selectivity System)
Description: NanoBRET K192. The conditions noted are these: HEK293. As to the method: as §1, §2, §3, §4

A further experiment deals with T12, TEC (Homo sapiens, UniProt P42680).
T12 construct: purchased Promega (NanoBRET Target Engagement K192 Kinase Selectivity System)
Description: NanoBRET K192. The note with it: HEK293. As to the method: as §1, §2, §3, §4

The target in the next experiment is T13, STK33 (Homo sapiens, UniProt Q9BYT3).
T13 construct: purchased Promega (NanoBRET Target Engagement K192 Kinase Selectivity System)
Description: NanoBRET K192. The note with it: HEK293. As to the method:
as §1, §2, §3, §4

For another experiment, the target named is T14, LATS2 (Homo sapiens, UniProt Q9NRM7).
T14 construct: purchased Promega (NanoBRET Target Engagement K192 Kinase Selectivity System)
Description: NanoBRET K192. The conditions noted are these: HEK293. Here is the method:
as §1, §2, §3, §4

The target in the next experiment is T15, HIPK2 (Homo sapiens, UniProt Q9H2X6).
T15 construct: purchased Promega (NanoBRET Target Engagement K192 Kinase Selectivity System)
Description: NanoBRET K192. The conditions noted are these: HEK293. As to the method: as §1, §2, §3, §4

A further experiment deals with T16, JNK3 (Homo sapiens, UniProt P53779).
T16 construct: purchased Promega (NanoBRET Target Engagement K192 Kinase Selectivity System)
T16 sequence (P53779 whole entry): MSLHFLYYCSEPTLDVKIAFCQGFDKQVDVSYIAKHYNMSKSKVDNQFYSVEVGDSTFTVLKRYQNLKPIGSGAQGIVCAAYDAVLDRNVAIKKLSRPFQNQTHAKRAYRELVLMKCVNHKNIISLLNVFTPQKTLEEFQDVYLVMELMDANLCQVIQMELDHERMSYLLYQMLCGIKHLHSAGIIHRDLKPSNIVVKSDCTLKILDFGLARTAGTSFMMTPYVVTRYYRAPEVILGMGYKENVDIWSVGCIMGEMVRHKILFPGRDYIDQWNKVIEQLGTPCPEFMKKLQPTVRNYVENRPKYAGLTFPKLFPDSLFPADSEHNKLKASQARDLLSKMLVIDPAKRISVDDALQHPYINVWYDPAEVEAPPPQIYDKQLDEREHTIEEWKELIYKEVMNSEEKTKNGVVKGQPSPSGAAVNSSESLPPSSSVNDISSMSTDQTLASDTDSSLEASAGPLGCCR
Description: NanoBRET K192. The conditions noted are these: HEK293. Here is the method:
as §1, §2, §3, §4

The next experiment has as its target T17, STK10 (Homo sapiens, UniProt O94804).
T17 construct: purchased Promega (NanoBRET Target Engagement K192 Kinase Selectivity System)
Description: NanoBRET K192. The note with it: HEK293. As to the method:
as §1, §2, §3, §4

The next experiment addresses T18, PTK2B (Homo sapiens, UniProt Q14289).
T18 construct: purchased Promega (NanoBRET Target Engagement K192 Kinase Selectivity System)
Description: NanoBRET K192. The conditions noted are these: HEK293. Here is the method: as §1, §2, §3, §4

Another experiment addresses T19, CDK15 + Y (Homo sapiens, UniProt Q96Q40).
T19 construct: purchased Promega (NanoBRET Target Engagement K192 Kinase Selectivity System)
Description: NanoBRET K192. The note with it: HEK293. As to the method: as §1, §2, §3, §4

A further experiment has as its target T20, CDKL2 (Homo sapiens, UniProt Q92772).
T20 construct: purchased Promega (NanoBRET Target Engagement K192 Kinase Selectivity System)
Description: NanoBRET K192. The conditions noted are these: HEK293. As to the method:
as §1, §2, §3, §4

For another experiment, the target named is T21, MARK4 (Homo sapiens, UniProt Q96L34).
T21 construct: purchased Promega (NanoBRET Target Engagement K192 Kinase Selectivity System)
The experiment in a line: NanoBRET K192. The note with it: HEK293. As to the method: as §1, §2, §3, §4

In another experiment the target is T22, AURKC (Homo sapiens, UniProt Q9UQB9).
T22 construct: purchased Promega (NanoBRET Target Engagement K192 Kinase Selectivity System)
T22 sequence (Q9UQB9 whole entry): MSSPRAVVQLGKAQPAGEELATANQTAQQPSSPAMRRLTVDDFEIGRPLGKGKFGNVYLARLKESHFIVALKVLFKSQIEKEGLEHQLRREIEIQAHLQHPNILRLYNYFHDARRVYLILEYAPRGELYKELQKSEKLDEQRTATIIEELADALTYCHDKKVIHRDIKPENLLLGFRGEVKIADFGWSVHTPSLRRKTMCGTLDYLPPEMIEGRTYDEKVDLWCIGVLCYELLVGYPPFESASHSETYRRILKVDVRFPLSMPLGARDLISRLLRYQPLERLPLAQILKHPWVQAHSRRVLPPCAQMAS
The experiment in a line: NanoBRET K192. The note with it: HEK293. Here is the method:
as §1, §2, §3, §4

In a further experiment the test system is 192 human kinases. Description: NanoBRET K192 panel, whole panel. The note with it: six off-target kinases, dose-response experiments. As to the method:
as §1
HEK293 cells were grown to 75–95% confluency in DMEM (Gibco 11995-065) supplemented with FBS (Avantor 97068-085) at 37 °C in 5% RH. […]
On day two of the assay, 5 μL of 20X K10 tracer was prepared and added at concentrations recommended by Promega. […] After 2–3 min, the plate was shaken at 300 RPM for 10 s, and the donor emission wavelength (450 nm) and acceptor emission wavelength (610 nm) were measured using the Glomax® Discover System.
as §4

T2 sequence (P49760 whole entry): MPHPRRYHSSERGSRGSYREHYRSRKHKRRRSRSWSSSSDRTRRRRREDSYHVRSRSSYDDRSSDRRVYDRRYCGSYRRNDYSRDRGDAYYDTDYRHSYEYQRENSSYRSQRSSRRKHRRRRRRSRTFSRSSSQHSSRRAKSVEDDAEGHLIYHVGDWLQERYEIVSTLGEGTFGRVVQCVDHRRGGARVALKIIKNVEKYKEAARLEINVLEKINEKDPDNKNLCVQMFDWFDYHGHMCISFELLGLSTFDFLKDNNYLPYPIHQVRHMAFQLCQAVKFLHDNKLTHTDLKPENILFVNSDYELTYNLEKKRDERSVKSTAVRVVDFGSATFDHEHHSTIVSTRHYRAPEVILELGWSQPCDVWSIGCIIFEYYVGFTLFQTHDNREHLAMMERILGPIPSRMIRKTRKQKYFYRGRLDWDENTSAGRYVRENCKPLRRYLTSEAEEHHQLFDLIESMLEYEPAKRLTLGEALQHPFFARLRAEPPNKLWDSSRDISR
T19 sequence (Q96Q40 whole entry): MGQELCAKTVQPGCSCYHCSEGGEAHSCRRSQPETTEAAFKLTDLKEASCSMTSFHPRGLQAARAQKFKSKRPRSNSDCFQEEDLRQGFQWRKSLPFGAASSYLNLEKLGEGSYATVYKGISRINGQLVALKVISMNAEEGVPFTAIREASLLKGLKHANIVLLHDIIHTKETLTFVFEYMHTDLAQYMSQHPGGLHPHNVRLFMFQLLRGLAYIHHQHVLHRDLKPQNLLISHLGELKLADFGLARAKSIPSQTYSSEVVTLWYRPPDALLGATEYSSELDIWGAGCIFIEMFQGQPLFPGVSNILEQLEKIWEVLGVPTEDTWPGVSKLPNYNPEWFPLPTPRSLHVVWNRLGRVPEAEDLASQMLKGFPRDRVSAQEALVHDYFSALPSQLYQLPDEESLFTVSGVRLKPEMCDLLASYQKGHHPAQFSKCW
T19 sequence (Q8ND76 whole entry partner): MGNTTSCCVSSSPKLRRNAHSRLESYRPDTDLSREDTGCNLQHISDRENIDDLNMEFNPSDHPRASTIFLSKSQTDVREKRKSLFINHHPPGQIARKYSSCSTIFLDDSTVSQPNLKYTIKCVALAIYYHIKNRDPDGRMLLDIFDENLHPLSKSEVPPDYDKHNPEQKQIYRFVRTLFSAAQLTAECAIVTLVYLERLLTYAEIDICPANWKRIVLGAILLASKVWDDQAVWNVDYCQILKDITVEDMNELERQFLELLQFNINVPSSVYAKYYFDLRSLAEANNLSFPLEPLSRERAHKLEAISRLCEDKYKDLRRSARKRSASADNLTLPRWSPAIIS

For `CCC(=O)Nc1cc(Nc2cc(NC3CC3)n3ncc(C#N)c3n2)c(F)cc1N1CCC[C@H](NC)C1` [Compound 2, (S)-N-(5-((3-cyano-7-(cyclopropylamino)pyrazolo[1,5-a]pyrimidin-5-yl)amino)-4-fluoro-2-(3-(methylamino)piperidin-1-yl)phenyl)propionamide], the receptor occupancy at 10 µM at MAP3K10 is -2.4%; on CLK2 (HEK293, CLK2) it was 84.8%; at SIK1, 6.4%; on MERTK, 4.2%; at PHKG2, 29.7%; at MAP3K12, -0.1%. The receptor occupancy at 10 µM on EPHA7 was -2.5%; at CDK4 + D3 it was 8.5%; on CDK5 + CDK5R1 it was 10.8%; at ICK it was -6.1%; on NEK4, 7.8%; at TEC, 9.1%. The receptor occupancy at 10 µM at STK33 is 26%; at LATS2, 9.4%; on HIPK2, 21.5%; on JNK3, 1%; on STK10, 14.4%; at PTK2B, -1.6%. For the same compound, the receptor occupancy at 10 µM on CDK15 + Y stood at 26.5%; on CDKL2, 13.6%; at MARK4, 7.4%; on AURKC, 4.5%. Moreover, on CLK2 (CLK2, HEK293), the “% occupancy at 10 μM” value was found to be 85%. Also, the “selectivity compared to CSNK2A1 and CSNK2A2” value with 192 human kinases was not below 1000 fold.
